Data reported in publication PMC4981850 (Scientific Reports, 2016).

How the values were obtained:
[1] = target: T1, hDAT (human dopamine transporter) (Homo sapiens, UniProt Q01959); experiment: two-electrode voltage clamp (-60 mV), Xenopus oocytes expressing hDAT, inward current; assay type: cell-based
T1 construct: gene SLC6A3

[2] = target: T1, hDAT (human dopamine transporter); experiment: two-electrode voltage clamp (-60 mV), Xenopus oocytes expressing hDAT, block of transporter leak current; assay type: cell-based

T1 sequence (Q01959 whole entry): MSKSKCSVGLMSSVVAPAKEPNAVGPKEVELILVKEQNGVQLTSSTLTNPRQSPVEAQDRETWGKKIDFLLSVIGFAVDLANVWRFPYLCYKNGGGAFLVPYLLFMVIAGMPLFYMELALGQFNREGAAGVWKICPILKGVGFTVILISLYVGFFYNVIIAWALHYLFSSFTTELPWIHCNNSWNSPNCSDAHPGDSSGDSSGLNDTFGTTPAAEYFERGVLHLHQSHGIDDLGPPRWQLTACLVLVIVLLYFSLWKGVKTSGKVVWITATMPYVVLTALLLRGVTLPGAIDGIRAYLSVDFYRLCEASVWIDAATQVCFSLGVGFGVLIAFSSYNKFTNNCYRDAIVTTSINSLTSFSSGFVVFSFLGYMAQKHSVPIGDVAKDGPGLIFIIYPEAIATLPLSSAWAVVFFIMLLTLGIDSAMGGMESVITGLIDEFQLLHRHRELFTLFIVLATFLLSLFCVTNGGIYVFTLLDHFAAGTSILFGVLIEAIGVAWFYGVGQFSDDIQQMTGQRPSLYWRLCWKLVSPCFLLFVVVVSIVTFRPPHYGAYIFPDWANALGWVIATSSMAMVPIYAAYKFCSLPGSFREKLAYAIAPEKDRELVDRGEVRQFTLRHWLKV

| SMILES | EC50 [1] | EC50 [2] |
| --- | --- | --- |
| C[C@@H]1NCCO[C@H]1c1ccccc1 [2S,3S(+)-PM, (2S,3S)-(+)-3-Methyl-2-phenylmorpholine] | 750 ± 140 nM |  |
| C[C@H]1NCCO[C@@H]1c1ccccc1 [2R,3R(−)-PM, (2R,3R)-(+)-3-Methyl-2-phenylmorpholine] | 2630 ± 600 nM |  |
| C[C@H]1[C@H](c2ccccc2)OCCN1C [2S,3S(+)-PDM, (2S,3S)-(+)-3,4-Dimethyl-2-phenylmorpholine] |  | 2560 ± 820 nM |
| C[C@@H]1[C@@H](c2ccccc2)OCCN1C [2R,3R(−)-PDM, (2R,3R)-(+)-3,4-Dimethyl-2-phenylmorpholine] |  | ~23500 nM |
